Assay results published in patent US7342012B2, “Inhibitors of αLβ2 mediated cell adhesion” (Mitsubishi Tanabe Pharma Corporation, priority 1999, dated 2008).
Structures can show the parent of a compound that is named as a salt.

| melting point | Compound |
| --- | --- |
| 112.4 °C | Cc1cc([C@H]2CN3C(=O)N(c4cc(Cl)nc(Cl)c4)C(=O)[C@]3(Cc3ccc(OC(F)(F)F)cc3)C2)c(C)[nH]1 [Example 288, (5R, 7S)-5-[4-(Trifluoromethoxy)benzyl]-3-(2,6-dichloro-4-pyridyl)-7-(2,5-dimethylpyrrolyl)-1,3-diazabicyclo[3.3.0]octane-2,4-dione] |
| 172 °C | NC(=O)C[C@H](NC(=O)c1c(Cl)cc(N2C(=O)N3CCCC3(Cc3ccc(Br)cc3)C2=O)cc1Cl)C(=O)O (stereo partly drawn) [Example 229, 5-(4-Bromobenzyl)-3-(3,5-dichloro-4-L-asparaginocarbonylphenyl)-1,3-diazabicyclo[3.3.0]octane-2,4-dione] |
| 113.5 °C | N#Cc1cc(CC23CCCN2C(=O)N(c2cc(Cl)nc(Cl)c2)C3=O)ccc1O (centres unmarked) [Example 197, 5-(3-Cyano-4-hydroxybenzyl)-3-(2,6-dichloro-4-pyridyl)-1,3-diazabicyclo[3.3.0]octane-2,4-dione] |
| 120.4 °C | CC(=O)c1cccc(N2C(=O)N3CCCC3(Cc3ccc(Br)cc3)C2=O)c1 (centres unmarked) [Example 237] |
| 78.7 °C (dec.) | CNC(=O)c1ccc(CC23CCCCN2C(=O)N(c2cc(Cl)cc(Cl)c2)C3=O)cc1 (centres unmarked) [Example 157] |
| 77.1 °C | O=C1N(c2cc(Cl)cc(Cl)c2)C(=O)C2(Cc3ccc(-c4cccc(CO)c4)cc3)CCCN12 (centres unmarked) [Example 222, 5-[4-(3-Hydroxymethylphenyl)benzyl]-3-(3,5-dichlorophenyl)-1,3-diazabicyclo[3.3.0]octane-l2,4-dione] |
| 87.2 °C | CC1(C)COC(c2ccc(CC34CCCCN3C(=O)N(c3cc(Cl)cc(Cl)c3)C4=O)cc2)=N1 (centres unmarked) [Example 159, 6-[4-(4,4-Dimethyl-4,5-dihydro-2-oxazolyl)benzyl]-8-(3,5-dichlorophenyl)-1,8-diazabicyclo[4.3.0]nonane-7,9-dione] |
| 122.7 °C | NC(=O)[C@H]1CN2C(=O)N(c3cc(Cl)cc(Cl)c3)C(=O)[C@]2(Cc2ccc(OC(F)(F)F)cc2)C1 [Example 312, (5R, 7R)-5-[4-(Trifluoromethoxy)benzyl]-3-(3,5-dichlorophenyl)-7-carbamoyl-1,3-diazabicyclo[3.3.0]octane-2,4-dione] |
| 114 °C | NCC(=O)N[C@@H]1CN2C(=O)N(c3cc(Cl)nc(Cl)c3)C(=O)[C@@]2(Cc2ccc(OC(F)(F)F)cc2)C1 [Example 252, (5R, 7S)-5-[4-(Trifluoromethoxy)benzyl]-3-(2,6-dichloro-4-pyridyl)-7-aminoacetylamino-1,3-diazabicyclo[3.3.0]octane-2,4-dione] |
| 152.8 °C | CC(=O)NC(CC(=O)N[C@@H]1CN2C(=O)N(c3cc(Cl)nc(Cl)c3)C(=O)[C@@]2(Cc2ccc(OC(F)(F)F)cc2)C1)C(N)=O (stereo partly drawn) [Example 256, (5R, 7S)-5-[4-(Trifluoromethoxy)benzyl]-3-(2,6-dichloro-4-pyridyl)-7-[(3-carbamoyl-3-acetylaminopropanoyl)amino]-1,3-diazabicyclo[3.3.0]octane-2,4-dione] |
| 182.8 °C | O=C1N(c2cc(Cl)nc(Cl)c2)C(=O)C2(Cc3cccc([N+](=O)[O-])c3)CCCN12 (centres unmarked) [Example 239, 5-(3-Nitrobenzyl)-3-(2,6-dichloro-4-pyridyl)-1,3-diazacyclo[3.3.0]octane-2,4-dione] |
| 51 °C | COC(=O)c1ccc(CC23CCCCN2C(=O)N(c2cc(Cl)cc(Cl)c2)C3=O)cc1 (centres unmarked) [Example 155, 6-(4-Methoxycarbonylbenzyl)-8-(3,5-dichlorophenyl)-1,8-diazabicyclo[4.3.0]nonane-7,9-dione] |
| 207.2 °C | CS(=O)(=O)N[C@@H]1CN2C(=O)N(c3cc(Cl)nc(Cl)c3)C(=O)[C@@]2(Cc2ccc(OC(F)(F)F)cc2)C1 [Example 254, (5R, 7S)-5-[4-(Trifluoromethoxy)benzyl]-3-(2,6-dichloro-4-pyridyl)-7-methanesulfonylamino-1,3-diazabicyclo[3.3.0]octane-2,4-dione] |
| 82.6 °C | O=C1N(c2cccc(C(F)(F)F)c2)C(=O)C2(Cc3ccc(Br)cc3)CCCN12 (centres unmarked) [Example 233] |

Continued, compound first:

| Compound | melting point |
| --- | --- |
| N#Cc1ccc(CC23CCCN2C(=O)N(c2cc(Cl)cc(-n4cccc4)c2)C3=O)cc1 (centres unmarked) [Example 51, 5-(4-Cyanobenzyl)-3-[3-chloro-5-(1-pyrrolyl)-phenyl]-1,3-diazabicyclo[3.3.0]octane-2,4-dione] | 266.5 °C |
| O=C(O)CCC(=O)N[C@@H]1CN2C(=O)N(c3cc(Cl)nc(Cl)c3)C(=O)[C@@]2(Cc2ccc(OC(F)(F)F)cc2)C1 [Example 66, (5R,7S)-5-[4-(Trifluoromethoxy)benzyl]-3-(2,6-dichloro-4-pyridyl)-7-(3-carboxypropanoylamino)-1,3-diazabicyclo[3.3.0]octane-2,4-dione] | 101.9 °C |
| O=C1N(c2cc(Cl)cc(Cl)c2)C(=O)[C@@]2(Cc3ccc(Br)cc3)C[C@H](O)CN12 [Example 61, (5R,7S)-5-(4-Bromobenzyl)-3-(3,5-dichlorophenyl)-7-hydroxy-1,3-diazabicyclo[3.3.0]octane-2,4-dione] | 60.4 °C |
| O=C1CN2C(=O)N(c3cc(Cl)nc(Cl)c3)C(=O)[C@@]2(Cc2ccc(OC(F)(F)F)cc2)C1 [Example 70, (5R)-5-[4-(Trifluoromethoxy)benzyl]-3-(2,6-dichloro-4-pyridyl)-7-oxo-1,3-diazabicyclo[3.3.0]octane-2,4-dione] | 166 °C |
| COC(=O)c1ccc(CC23CCCN2C(=O)N(c2cc(Cl)c(O)c(Cl)c2)C3=O)cc1 (centres unmarked) [Example 142, 5-(4-Methoxycarbonylbenzyl)-3-(3,5-dichloro-4-hydroxyphenyl)-1,3-diazabicyclo[3.3.0]octane-2,4-dione] | 105.3 °C |
| N#Cc1ccc(CC23CCCN2C(=O)N(CCc2cccc(Cl)c2)C3=O)cc1 (centres unmarked) [Example 107, 5-(4-Cyanobenzyl)-3-[2-(3-chlorophenyl)ethyl]-1,3-diazabicyclo[3.3.0]octane-2,4-dione] | 148 °C |
| N[C@@H]1CN2C(=O)N(c3cc(Cl)nc(Cl)c3)C(=O)[C@@]2(Cc2ccc(OC(F)(F)F)cc2)C1 [Example 63, (5R,7S)-5-[4-(Trifluoromethoxy)benzyl]-3-(2,6-dichloro-4-pyridyl)-7-amino-1,3-diazabicyclo[3.3.0]octane-2,4-dione] | 150.6 °C |
| O=C(N[C@@H]1CN2C(=O)N(c3cc(Cl)nc(Cl)c3)C(=O)[C@@]2(Cc2ccc(OC(F)(F)F)cc2)C1)c1ccncc1 [Example 67, (5R,7S)-5-[4-(Trifluoromethoxy)benzyl]-3-(2,6-dichloro-4-pyridyl)-7-(isonicotinoylamino)-1,3-diazabicyclo[3.3.0]octane-2,4-dione] | 148 °C |
| O=C(c1ccc(Cl)c(Cl)c1)N1C(=O)N2CCCC2(Cc2ccc(Br)cc2)C1=O (centres unmarked) [Example 109, 5-(4-Bromobenzyl)-3-(3,4-dichlorobenzoyl)-1,3-diazabicyclo[3.3.0]octane-2,4-dione] | 158 °C |
| N#Cc1ccc(CC23CCCN2C(=O)N(c2cc(Cl)cc(-n4cccc4C=O)c2)C3=O)cc1 (centres unmarked) [Example 52, 5-(4-Cyanobenzyl)-3-[3-chloro-5-(2-formyl-1-pyrrolyl)-phenyl]-1,3-diazabicyclo[3.3.0]octane-2,4-dione] | 109.7 °C |
| O=C1N(c2cc(Cl)nc(Cl)c2)C(=O)C2(Cc3ccc(Br)cc3)CCCNN12 (centres unmarked) [Example 100, 6-(4-Bromobenzyl)-8-(2,6-dichloro-4-pyridyl)-1,2,8-triazabicyclo[4.3.0] nonan-7,9-dione] | 190 °C (dec.) |
| CC(C)(C)OC(=O)N1CCC2(Cc3ccc(C#N)cc3)C(=O)N(c3cc(Cl)nc(Cl)c3)C(=O)N12 (centres unmarked) [Example 56, 8-(t-Butoxycarbonyl)-5-(4-cyanobenzyl)-3-(2,6-dichloro-4-pyridyl)-1,3,8-triazabicyclo[3.3.0]octane-2,4-dione] | 179 °C |
| N#Cc1ccc(CC23CCCN2C(=O)N(Cc2ccncc2)C3=O)cc1 (centres unmarked) [Example 108, 5-(4-Cyanobenzyl)-3-(4-pyridylmethyl)-1,3-diazabicyclo[3.3.0]octane-2,4-dione] | 154 °C |
| O=C1N(c2cc(C(F)(F)F)cc(C(F)(F)F)c2)C(=O)C2(Cc3ccc(Br)cc3)CCCN12 (centres unmarked) | 138 °C |
| CN1CCN(C(=O)CCC(=O)N[C@@H]2CN3C(=O)N(c4cc(Cl)nc(Cl)c4)C(=O)[C@@]3(Cc3ccc(OC(F)(F)F)cc3)C2)CC1 [Example 69, (5R,7S)-5-[4-(Trifluoromethoxy)benzyl]-3-(2,6-dichloro-4-pyridyl)-7-[3-(4-methyl-1-piperazinylcarbonyl)propanoylamino]-1,3-diazabicyclo[3.3.0]octane-2,4-dione] | 70 °C |
| N#Cc1ccc(CC23CCNN2C(=O)N(c2cc(Cl)nc(Cl)c2)C3=O)cc1 (centres unmarked) [Example 57, 5-(4-Cyanobenzyl)-3-(2,6-dichloro-4-pyridyl)-1,3,8-triazabicyclo [3.3.0]octane-2,4-dione] | 187 °C |
| CS(=O)(=O)N1CCN2C(=O)N(c3cc(Cl)cc(Cl)c3)C(=O)C2(Cc2ccc(Br)cc2)C1 (centres unmarked) [Example 33, 4-Methanesulfonyl-6-(4-bromobenzyl)-8-(3,5-dichlorophenyl)-1,4,8-triazabicyclo[4.3.0]nonane-7,9-dione] | 229 °C |
| O=C(O)CN1CCN2C(=O)N(c3cc(Cl)cc(Cl)c3)C(=O)C2(Cc2ccc(Br)cc2)C1 (centres unmarked) [Example 34, 4-Carboxymethyl-6-(4-bromobenzyl)-8-(3,5-dichlorophenyl)-1,4,8-triazabicyclo[4.3.0]nonane-7,9-dione] | 236.5 °C |
| [N-]=[N+]=N[C@@H]1CN2C(=O)N(c3cc(Cl)cc(Cl)c3)C(=O)[C@]2(Cc2ccc(Br)cc2)C1 [Example 3, (5S,7S)-5-(4-Bromobenzyl)-3-(3,5-dichlorophenyl)-7-azido-1,3-diazabicyclo[3.3.0]octane-2,4-dione] | 58.9 °C |
| O=C1N(c2cc(Cl)c(OCc3ccccc3)c(Cl)c2)C(=O)C2(Cc3ccc(Br)cc3)CCCN12 (centres unmarked) [Example 138, 5-(4-Bromobenzyl)-3-[3,5-dichloro-4-(benzyloxy)phenyl]-1,3-diazabicyclo[3.3.0]octane-2,4-dione] | 62 °C |
| CC(C)(C)OC(=O)N1CCN2C(=O)N(c3cc(Cl)cc(Cl)c3)C(=O)C2(Cc2ccc(Br)cc2)C1 (centres unmarked) (as salt: Na) [Example 26, 4-(tert-Butoxycarbonyl)-6-(4-bromobenzyl)-8-(3,5-dichlorophenyl)-1,4,8-triazabicyclo[4.3.0]nonane-7,9-dione] | 79.5 °C |
